According to article PMC7403315, “Cyclic peptide FXII inhibitor provides safe anticoagulation in a thrombosis model and in artificial lungs” (Nature Communications, 2020):
“And” between values parts separate entries of the source, which are not always exact repeats. Equal values may be shown once. Read-outs that look alike come from different tables or passages of the source. Starred links: 1 amine or outer side, 2 acyl side, 3 side chain; linkers in the order of their positions; H or OH if unused. Positions of bridges follow the written chain, without caps; N, C: chain ends. Non-standard residues stand in square brackets, D forms with d. Residues, ends and D or L forms follow the SMILES beside them. TATA = O=C(CC[*:1])N1CN(C(=O)CC[*:2])CN(C(=O)CC[*:3])C1; Phe(4-F) = N[C@@H](Cc1ccc(F)cc1)C(=O)O; β3hR = N=C(N)NCCC[C@H](N)CC(=O)O

Experiments:
[1] = target: activated protein C (APC) (Homo sapiens, UniProt P04070); test: Specificity profiling, residual protease activity (chromogenic substrate); type: biochemical
Method: Protease inhibition assays
The inhibitory activity of peptides was determined by measuring the residual protease activity with a fluorogenic substrate. The assay was performed in buffer containing 10 mM Tris-Cl, pH […]
1% (v/v) DMSO in a volume of 150 µl. […]
HFXIIAB) were used at final concentrations of 0.4 nM. The reaction was pipetted as follows: 50 µl of bicyclic peptide in assay buffer were added to 50 µl of FXIIa in assay buffer and incubated for 10 minutes at 25°C before 50 µl of 150 µM fluorogenic substrate in assay buffer were added to measure the residual protease activity with an Infinite M200Pro fluorescence plate reader (excitation at 368 nm, emission at 467 nm; Tecan) for a period of 30 minutes with a read every minute at 25°C. The Tecan software i-control (version 1.1) was used for data analysis. Stock solutions of 1 mM bicyclic peptide were prepared by either dissolving the unpurified cyclization reaction with water or by dissolving purified and lyophilized peptide in water. The bicyclic peptides were serially diluted two-fold using assay buffer. Sigmoidal curves were fitted to the data using the following dose response equation (1), wherein x = peptide concentration, y = % protease activity, and p = Hill slope. IC50 values were derived from the fitted curve.
The inhibition constants (Ki) were calculated according to the equation of Cheng and Prusoff, Ki = IC50/(1+([S]0/Km), wherein IC50 is the functional strength of the inhibitor, [S]0 is the total substrate concentration, and Km is the Michaelis-Menten constant. […]
For testing the specificity of the bicyclic peptides, the following final concentrations of human serine proteases were used: tPA (Molecular Innovations) 7.5 nM, uPA (Molecular Innovations) 1.5 nM, factor XIa (Innovative Research) 6 nM, plasma kallikrein (Innovative Research) 0.25 nM, thrombin (Molecular Innovations) 1 nM, plasmin (Molecular Innovations) 2.5 nM, trypsin (Molecular Innovations) 0.05 nM, factor VIIa (Haematologic Technologies) 50 nM, factor Xa […]
(Haematologic Technologies) 6 nM, and activated protein C (APC) 5 nM. Two-fold dilutions of the peptide were prepared that ranged from 0.04 to 40 µM. The following fluorogenic substrates were used at a final concentration of 50 µM: Z-Phe-Arg-AMC (Bachem) for plasma kallikrein; Boc-Phe-Ser-Arg-AMC (Bachem) for factor XIa; Z-Gly-Gly-Arg-AMC (Bachem) for tPA, uPA, thrombin, and trypsin; H-D-Val-Leu-Lys-AMC (Bachem) for plasmin; and D-Phe-Pro-Arg-ANSNH-C4H9 (Haematologic Technologies) for FVIIa and FXa. For APC, the chromogenic substrate pyroGlu-Pro-Arg-pNA (S2366) was used at a concentration of 400 µM. […]

[2] = Plasma stability assay (residual FXIIa inhibitory activity after plasma incubation); type: in vitro ADME, human; conditions: for Residual activity of inhibitor: human plasma 37 °C; for half-life at 10 μM: human, plasma
Method: Peptide (2 μl of 2 mM in H2O) was added to 398 μl of citrated human plasma (Innovative Research) to obtain a final peptide concentration of 10 μM. The mixture was incubated in a water bath at 37 °C. At different time points (0, 0.5, 1, 2, 4, 8, 12, 24, 48, and 96 h), samples of 30 μl were removed, diluted to 200 μl with aqueous buffer (10 mM Tris-HCl, pH 7.4, 150 mM NaCl, 10 mM MgCl2, 1 mM CaCl2), and incubated for 20 min at 65 °C to inactivate plasma proteases. The peptide/plasma samples were stored at −20 °C until the residual inhibitory activity of the peptides was measured in a FXIIa inhibition assay. […] IC50 values were derived from the fitted curve using an equation described in the Supplementary Methods. Residual inhibition in % was calculated using the equation IC50,0h/IC50,xh*100, wherein IC50,0h is the functional strength of the inhibitor at time point 0 and IC50,xh the functional strength of the inhibitor after one of the different plasma incubation periods mentioned above.

Sequence of activated protein C (APC) (P04070 212-461 limits assumed): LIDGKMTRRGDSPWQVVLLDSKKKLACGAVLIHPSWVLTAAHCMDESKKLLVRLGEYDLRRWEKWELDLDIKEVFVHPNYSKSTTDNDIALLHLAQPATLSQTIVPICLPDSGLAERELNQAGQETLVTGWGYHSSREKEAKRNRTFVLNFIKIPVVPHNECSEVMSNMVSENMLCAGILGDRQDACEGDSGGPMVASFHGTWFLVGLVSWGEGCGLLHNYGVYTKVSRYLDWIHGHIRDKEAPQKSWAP
Sequence of activated protein C (APC) (P04070 43-197 limits assumed): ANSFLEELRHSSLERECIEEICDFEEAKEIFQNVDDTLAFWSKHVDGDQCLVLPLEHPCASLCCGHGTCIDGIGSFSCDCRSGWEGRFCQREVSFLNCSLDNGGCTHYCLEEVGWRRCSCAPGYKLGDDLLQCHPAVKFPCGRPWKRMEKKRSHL

With `CC(C)C[C@@H]1NC(=O)[C@H](CCC(N)=O)NC(=O)[C@H](Cc2c[nH]cn2)NC(=O)[C@@H]2CSCCC(=O)N3CN(CN(C3)C(=O)CCSC[C@H](NC(=O)[C@@H](CO)NC(=O)[C@H](N)CCCNC(=N)N)C(=O)N[C@@H](Cc3ccc(F)cc3)C(=O)N[C@@H](CCCNC(=N)N)C(=O)N[C@@H](CC(C)C)C(=O)N3CCC[C@H]3C(=O)N2)C(=O)CCSC[C@@H](C(N)=O)NC(=O)C[C@H](CCCNC(=N)N)NC1=O` [FXII900] (H-[dR][dS]C[Phe(4-F)]RLPCHQL[β3hR]C-NH2; linker 3-8-13 via TATA) the Ki [1] was greater than 40 µM, the remaining activity at 0.0390625 µM ([1]; inhibitor 39.0625 nM) was 98.1% and the “Residual activity of APC” value ([1]; inhibitor 39.0625 nM, 0.0390625 µM) was 97.5009% and 97.9227%. The remaining activity at 0.078125 µM ([1]; inhibitor 78.125 nM) was 102%, the “Residual activity of APC” value ([1]; inhibitor 78.125 nM, 0.078125 µM) was 96.3711% and 96.6396% and the remaining activity at 0.15625 µM ([1]; inhibitor 156.25 nM) was 102%. For the same molecule, the “Residual activity of APC” value ([1]; inhibitor 156.25 nM, 0.15625 µM) was 97.5779% and 99.0137%, the remaining activity at 0.3125 µM ([1]; inhibitor 312.5 nM) was 102% and the “Residual activity of APC” value ([1]; inhibitor 312.5 nM, 0.3125 µM) was 99.2982% and 100.044%. The remaining activity at 0.625 µM ([1]; inhibitor 625 nM) was 103%, the “Residual activity of APC” value ([1]; inhibitor 625 nM, 0.625 µM) was 98.4851% and 100.174% and the remaining activity at 1.25 µM ([1]; inhibitor 1250 nM) was 103%. For the same molecule, the “Residual activity of APC” value ([1]; inhibitor 1250 nM, 1.25 µM) was 97.7747% and 100.567%, the remaining activity at […] ([1]; inhibitor 2500 nM) was 102% and the remaining activity at 5 µM ([1]; inhibitor 5000 nM) was 101%. The “Residual activity of APC” value ([1]; inhibitor 5000 nM, 5 µM) was 97.0131% and 99.7294%, the remaining activity at 10 µM ([1]; inhibitor 10000 nM) was 101% and the “Residual activity of APC” value ([1]; inhibitor 10000 nM, 10 µM) was 97.8346% and 99.7294%. The remaining activity at 20 µM ([1]; inhibitor 20000 nM) was 101%, the “Residual activity of APC” value ([1]; inhibitor 20000 nM, 20 µM) was 96.859% and 99.2406% and the remaining activity at 40 µM ([1]; inhibitor 40000 nM (40 µM)) was 98.3 ± 2.3%. For the same molecule, the “Residual activity of APC” value ([1]; inhibitor 40000 nM (40 µM), 40 µM) was 100.29% and 95.7977% and 98.8915%, the “Residual activity of inhibitor” value ([2]; incubation time 0 h) was 100% and the “Residual activity of inhibitor” value ([2]; incubation time 1 h) was 95.4017% and 101.157%. For the same molecule, the “Residual activity of inhibitor” value ([2]; incubation time 2 h) was 110.888% and 102.799%, the “Residual activity of inhibitor” value ([2]; incubation time 4 h) was 107.121% and 93.1543% and the “Residual activity of inhibitor” value ([2]; incubation time 8 h) was 88.5873% and 105.225%. For the same molecule, the “Residual activity of inhibitor” value ([2]; incubation time 12 h) was 112.249% and 90.2639%, the “Residual activity of inhibitor” value ([2]; incubation time 24 h) was 92.7385% and 98.9596% and the “Residual activity of inhibitor” value ([2]; incubation time 48 h) was 82.5714% and 71.5934%. For the same molecule, the “Residual activity of inhibitor” value ([2]; incubation time 96 h) was 52.5% and 56.04%, the half-life at 10 μM ([2]; 37 °C, remaining FXIIa inhibitory activity, read-out: half-life in human plasma (converted)) was 128 h and the half-life at 10 μM ([2]; t1/2 in plasma) was greater than 120 h.
